Experimental data: US20230113037A1 (Bayer Aktiengesellschaft, priority 2019, published 2023)
Values joined by “and” are separate entries in the source; they are usually repeats but may differ in a detail not shown here. Equal values may be shown once. Read-outs that look alike come from different tables or passages of the source.

Tests used:
AHR [1] = biological target: T1, AHR (Mus musculus, UniProt P30561); assay: In vitro assay 3: antagonism in mouse cell line (AHR transactivation, firefly luciferase reporter, kynurenic acid prestimulated); type: cell-based
T1 sequence (P30561 1-848 P471L/N533S/M589L): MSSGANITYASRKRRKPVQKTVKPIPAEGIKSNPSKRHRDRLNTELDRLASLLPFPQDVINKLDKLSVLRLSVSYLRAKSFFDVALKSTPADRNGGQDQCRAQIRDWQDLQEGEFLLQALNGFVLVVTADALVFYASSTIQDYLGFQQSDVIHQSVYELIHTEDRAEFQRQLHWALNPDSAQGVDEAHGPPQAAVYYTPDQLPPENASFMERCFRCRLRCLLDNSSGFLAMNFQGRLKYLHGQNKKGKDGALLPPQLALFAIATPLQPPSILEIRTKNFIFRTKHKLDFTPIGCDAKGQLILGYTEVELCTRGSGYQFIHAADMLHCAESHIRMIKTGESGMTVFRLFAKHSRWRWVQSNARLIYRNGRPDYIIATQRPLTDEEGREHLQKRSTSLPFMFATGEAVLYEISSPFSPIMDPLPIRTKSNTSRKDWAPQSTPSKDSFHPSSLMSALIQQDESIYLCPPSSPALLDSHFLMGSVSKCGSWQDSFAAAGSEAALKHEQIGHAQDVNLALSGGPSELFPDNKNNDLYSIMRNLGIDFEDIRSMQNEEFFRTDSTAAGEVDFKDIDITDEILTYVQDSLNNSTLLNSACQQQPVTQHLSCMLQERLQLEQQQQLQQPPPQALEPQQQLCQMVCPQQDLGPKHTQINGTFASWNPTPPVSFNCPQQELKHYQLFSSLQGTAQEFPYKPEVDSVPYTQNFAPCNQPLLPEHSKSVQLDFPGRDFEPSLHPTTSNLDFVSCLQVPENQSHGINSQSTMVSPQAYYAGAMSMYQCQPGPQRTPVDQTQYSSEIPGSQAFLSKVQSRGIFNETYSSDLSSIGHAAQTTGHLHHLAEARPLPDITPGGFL
Procedure, shortened: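 Cells were first stimulated with kynurenic acid, then exposed to test compound, after which firefly luciferase from a DRE-containing AHR reporter was read out. Signal was scaled between positive and negative controls. Cells not given kynurenic acid provided the inhibition reference.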

AHR [2] = biological target: T2, AHR (Homo sapiens, UniProt P35869); assay: In vitro assay 1: antagonism in human cell line (AHR transactivation, firefly luciferase reporter, kynurenic acid prestimulated); type: cell-based; settings: AHR Antagonism Human IC50 [M]
T2 construct: U87 MG glioblastoma cells (ATCC #HTB-14) endogenously expressing AHR; endogenous in cells; host or cells: U87 MG glioblastoma cells (ATCC #HTB-14)
T2 sequence (P35869 11-848): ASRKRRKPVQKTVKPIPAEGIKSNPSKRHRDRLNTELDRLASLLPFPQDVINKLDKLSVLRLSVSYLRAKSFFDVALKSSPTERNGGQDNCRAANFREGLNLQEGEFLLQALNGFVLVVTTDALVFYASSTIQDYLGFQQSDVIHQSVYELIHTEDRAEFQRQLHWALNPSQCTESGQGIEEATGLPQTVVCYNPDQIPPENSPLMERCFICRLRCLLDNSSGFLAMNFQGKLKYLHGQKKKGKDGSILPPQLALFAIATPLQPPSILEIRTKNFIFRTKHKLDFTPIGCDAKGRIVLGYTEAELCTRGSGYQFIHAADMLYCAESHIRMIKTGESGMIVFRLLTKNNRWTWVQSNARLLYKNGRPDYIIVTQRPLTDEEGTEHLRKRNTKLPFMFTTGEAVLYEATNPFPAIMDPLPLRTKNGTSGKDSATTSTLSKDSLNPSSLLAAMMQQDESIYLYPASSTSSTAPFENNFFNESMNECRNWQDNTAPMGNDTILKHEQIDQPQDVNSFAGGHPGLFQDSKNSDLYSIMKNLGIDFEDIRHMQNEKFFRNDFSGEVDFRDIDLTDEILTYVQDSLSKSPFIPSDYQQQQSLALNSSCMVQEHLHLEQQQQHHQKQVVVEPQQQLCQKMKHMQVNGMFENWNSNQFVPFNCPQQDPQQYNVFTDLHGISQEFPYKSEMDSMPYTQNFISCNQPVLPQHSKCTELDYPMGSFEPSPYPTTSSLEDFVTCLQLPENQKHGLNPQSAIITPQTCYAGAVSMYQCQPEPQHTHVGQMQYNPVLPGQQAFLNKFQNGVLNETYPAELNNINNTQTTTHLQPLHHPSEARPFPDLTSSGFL
Procedure, shortened: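 U87 MG glioblastoma cells with endogenous AHR, stably carrying a DRE-driven firefly luciferase reporter and constitutive Renilla reporter, prestimulated with kynurenic acid before compound addition. Firefly and Renilla read by dual luciferase; Renilla flags toxicity; normalized to controls (150 μM kynurenic acid + 5 μM staurosporine as full inhibition); repeat values averaged or median.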

[3] = read-out: AHR Antagonism Mouse IC50, Hepa 1c1c7 cells, 200 μM kynurenic acid, 20 hours, firefly luciferase reporter
[4] = mouse Hepa 1c1c7 cells, 200 μM kynurenic acid, 20 hours, read-out: AHR Antagonism Mouse IC50
[5] = Hepa 1c1c7 cells, 200 μM kynurenic acid, 20 hours, firefly luciferase reporter, read-out: AHR Antagonism Mouse IC50

Structure (SMILES)	IC50 (AHR [1]; [4])	IC50 (AHR [2])	further results
COc1ccc(-c2nc3c4cccc(Br)c4nc(N[C@@H]4CS(=O)(=O)CCNC4=O)n3n2)cc1 [Example 851, (6S)-6-{[7-bromo-2-(4-methoxyphenyl)[1,2,4]triazolo[1,5-c]quinazolin-5-yl]amino}-1λ^6,4-thiazepane-1,1,5-trione]			IC50 (AHR [1]; [3]): 0.00176 µM; IC50 (AHR [2]; firefly luciferase reporter): 9.17e-10 M
COc1ccc(-c2nc3c4ccc(C)cc4nc(N[C@@H]4CCCCNC4=O)n3n2)cc1 [Example 228, (3R)-3-{[2-(4-methoxyphenyl)-8-methyl[1,2,4]triazolo[1,5-c]quinazolin-5-yl]amino}azepan-2-one]	0.0389 µM	3.01e-08 M	
COc1ccc(-c2nc3c4cccc(Br)c4nc(N[C@H](C)C(=O)N4CC5(CN(C(=O)OC(C)(C)C)C5)C4)n3n2)cc1 [Example 920, tert-butyl 6-{N-[7-bromo-2-(4-methoxyphenyl)[1,2,4]triazolo[1,5-c]quinazolin-5-yl]-D-alanyl}-2,6-diazaspiro[3.3]heptane-2-carboxylate]			IC50 (AHR [1]; [5]): 0.011 µM; IC50 (AHR [2]; firefly luciferase reporter): 7.45e-09 M
N#Cc1cccc2c1nc(N[C@@H]1CNCCNC1=O)n1nc(-c3cnn(C4CC4)c3)nc21 [Example 932, 2-(1-cyclopropyl-1H-pyrazol-4-yl)-5-{[(6R)-5-oxo-1,4-diazepan-6-yl]amino}[1,2,4]triazolo[1,5-c]quinazoline-7-carbonitrile]			IC50 (AHR [1]; [5]): 0.173 µM; IC50 (AHR [2]; firefly luciferase reporter): 1.48e-07 M
COc1ccc(-c2nc3c4cccc(C(C)(C)O)c4nc(N[C@@H]4CCCCNC4=O)n3n2)cc1 [Example 859, (3R)-3-{[7-(2-hydroxypropan-2-yl)-2-(4-methoxyphenyl)[1,2,4]triazolo[1,5-c]quinazolin-5-yl]amino}azepan-2-one]			IC50 (AHR [1]; [5]): 0.0394 µM; IC50 (AHR [2]; firefly luciferase reporter): 4.11e-09 M
COc1ccc(-c2nc3c4cccc(OC)c4nc(N[C@@H]4CCCCNC4=O)n3n2)cc1 [Example 205, (3R)-3-{[7-methoxy-2-(4-methoxyphenyl)[1,2,4]triazolo[1,5-c]quinazolin-5-yl]amino}azepan-2-one]	0.00765 µM	2.15e-09 M	
CS(=O)(=O)c1ccc(-c2nc3c4cccc(Br)c4nc(N[C@H]4CCCCNC4=O)n3n2)cc1 [Example 680, (3S)-3-({7-bromo-2-[4-(methanesulfonyl)phenyl][1,2,4]triazolo[1,5-c]quinazolin-5-yl}amino)azepan-2-one]		3.93e-08 M	IC50 (AHR [1]; read-out: AHR Antagonism Mouse IC50, mouse Hepa 1c1c7 cells, 200 μM kynurenic acid, 20 hours): 0.0356 µM
COc1ccc(-c2nc3c4cc(Cl)ccc4nc(N[C@@H]4CCCCNC4=O)n3n2)cc1 [Example 235, (3R)-3-{[9-chloro-2-(4-methoxyphenyl)[1,2,4]triazolo[1,5-c]quinazolin-5-yl]amino}azepan-2-one]	0.00114 µM	2.34e-09 M	
O=C1NCCCC[C@H]1Nc1nc2ccccc2c2nc(-c3cnn(C4CCNCC4)c3)nn12 [Example 646, (3R)-3-({2-[1-(piperidin-4-yl)-1H-pyrazol-4-yl][1,2,4]triazolo[1,5-c]quinazolin-5-yl}amino)azepan-2-one]	> 20 µM and 11.8 µM	2.89e-06 M	
C[C@@H](Nc1nc2c(C(F)(F)F)cccc2c2nc(-c3cnn(C)c3)nn12)C(=O)N1CC2(COC2)C1 [Example 880, (2R)-2-{[2-(1-methyl-1H-pyrazol-4-yl)-7-(trifluoromethyl)[1,2,4]triazolo[1,5-c]quinazolin-5-yl]amino}-1-(2-oxa-6-azaspiro[3.3]heptan-6-yl)propan-1-one]			IC50 (AHR [1]; [3]): 0.193 µM; IC50 (AHR [2]; firefly luciferase reporter): 5.77e-08 M
CC(C)[C@@H](Nc1nc2c(Br)cccc2c2nc(-c3cnn(C)c3)nn12)C(=O)N1CCN(C)CC1 [Example 928, (2R)-2-{[7-bromo-2-(1-methyl-1H-pyrazol-4-yl)[1,2,4]triazolo[1,5-c]quinazolin-5-yl]amino}-3-methyl-1-(4-methylpiperazin-1-yl)butan-1-one]			IC50 (AHR [1]; [5]): 0.00576 µM; IC50 (AHR [2]; firefly luciferase reporter): 1.81e-08 M

Second part, led by results:

IC50 (AHR [1]; [4])	IC50 (AHR [2])	Structure (SMILES)	further results
0.0087 µM	4.44e-09 M	COc1ccc(-c2nc3c4cc(C#N)ccc4nc(N[C@@H]4CCCCNC4=O)n3n2)cc1 [Example 401, 2-(4-Methoxyphenyl)-5-{[(3R)-2-oxoazepan-3-yl]amino}[1,2,4]triazolo[1,5-c]quinazoline-9-carbonitrile]	
0.0947 µM	8.6e-08 M	Cc1n[nH]c(C)c1-c1nc2c3ccccc3nc(N[C@@H]3CCCCNC3=O)n2n1 [Example 536, (3R)-3-{[2-(3,5-dimethyl-1H-pyrazol-4-yl)[1,2,4]triazolo[1,5-c]quinazolin-5-yl]amino}azepan-2-one]	
0.00322 µM	1.3e-08 M	O=C1NCCCC[C@H]1Nc1nc2ccccc2c2nc(-c3ccccc3C(F)(F)F)nn12 [Example 52, (3R)-3-({2-[2-(trifluoromethyl)phenyl][1,2,4]triazolo[1,5-c]quinazolin-5-yl}amino)azepan-2-one]	
0.0709 µM	7.8e-09 M	COc1ccc(-c2nc3c4cccc(C(C)C)c4nc(N[C@@H]4CNCCNC4=O)n3n2)cc1 [Example 429, (6R)-6-{[2-(4-methoxyphenyl)-7-(propan-2-yl)[1,2,4]triazolo[1,5-c]quinazolin-5-yl]amino}-1,4-diazepan-5-one]	
5.51 µM and > 5.71 µM	> 2e-05 M	COc1cccc(-c2nc3c4ccccc4nc(N[C@@H](CCCCN)C(N)=O)n3n2)c1 [Example 114, N^2-[2-(3-methoxyphenyl)[1,2,4]triazolo[1,5-c]quinazolin-5-yl]-L-lysinamide]	
0.0293 µM	1.36e-07 M	CCCCNC(=O)[C@H](C)Nc1nc2ccccc2c2nc(-c3cccc(C#N)c3)nn12 [Example 441, N-butyl-N^2-[2-(3-cyanophenyl)[1,2,4]triazolo[1,5-c]quinazolin-5-yl]alaninamide]	
0.00432 µM	2.09e-09 M	COc1ccc(-c2nc3c4ccccc4nc(N[C@H](C)C(=O)N4CCOCC4)n3n2)cc1 [Example 778, (2R)-2-{[2-(4-methoxyphenyl)[1,2,4]triazolo[1,5-c]quinazolin-5-yl]amino}-1-(morpholin-4-yl)propan-1-one]	
0.164 µM	1.3e-07 M	Cn1cc(-c2nc3c4ccccc4nc(N[C@@H]4CCCCNC4=O)n3n2)nn1 [Example 435]	
0.0821 µM	1.4e-08 M	CCOC(=O)[C@@H](C)Nc1nc2ccccc2c2nc(-c3ccc(OC)cc3)nn12 [Example 657, ethyl N-[2-(4-methoxyphenyl)[1,2,4]triazolo[1,5-c]quinazolin-5-yl]-D-alaninate]	
0.0617 µM	1.03e-07 M	O=C1NCCCC[C@H]1Nc1nc2ccccc2c2nc(-c3cccnn3)nn12 [Example 644, (3R)-3-{[2-(pyridazin-3-yl)[1,2,4]triazolo[1,5-c]quinazolin-5-yl]amino}azepan-2-one]	
0.00634 µM	4.54e-09 M	COc1cccc(-c2nc3c4ccccc4nc(N[C@H](Cc4ccccc4)C(N)=O)n3n2)c1 [Example 90, N^2-[2-(3-methoxyphenyl)[1,2,4]triazolo[1,5-c]quinazolin-5-yl]-D-phenylalaninamide]	
